This note sets out measurements from patent EP0606463B1, “NEUROMEDIN B RECEPTOR ANTAGONISTS” (The Administrators of The Tulane Educational Fund, priority 1992, dated 1994).

Test [1] deals with T1, NMB receptors on C-6 cells (Rattus norvegicus, UniProt P24053).
T1 construct: endogenous in cells; host or cells: rat glioblastoma C-6 cells
The experiment in a line: Binding of 125I-[D-Tyr0]NMB to C-6 glioblastoma cells. To be noted: NMB Receptor, Ki by method of Cheng, read-out: Ki(nM) ^123I-NMB Binding. The protocol:
Binding studies using rat glioblastoma C-6 or NMB-R transfected cells were performed as described previously [Benya, R. V. et al. Mol. Pharmacol. 42:1058 (1992); and Wang, L-H. et al. Biochem. J. 286:641 (1992)] by suspending disaggregated cells in binding buffer, which was composed of standing buffer ([…], 7.7 mM KCl, 1.0 mM EGTA, 0.02% soybean trypsin inhibitor) additionally containing 50 mM HEPES, 1 mM MgCl2, 1.5 mM CaCl2, 2.2 mM KH2PO4, 0.015% glutamine, and 0.2% BSA (w\v) (pH 7.4). Incubations contained 75 pM ^125I-[D-Tyr^0]NMB and 15 x 10^6 C-6 cells/ml or 2 x 10^6 NMB-R transfected cells/ml, for 60 min at 22°C. Nonsaturable binding of ^125I-[D-Tyr^0]NMB was te amount of radioactivity associated with C-6 cells or NMB-R transfected cells when the incubation mixture contained […]. Nonsaturable binding was < 15% of total binding in all experiments; all values are reported herein as saturable binding (i.e., total minus nonsaturable binding).

A further test concerns the target T2, rat NMB receptor (Rattus norvegicus, UniProt P24053).
T2 construct: a full length NMB-preferring bombesin receptor clone generated from rat esophagus; expressed in transfected cells; host or cells: BALB 3T3 cells
T2 sequence (P24053 1-390): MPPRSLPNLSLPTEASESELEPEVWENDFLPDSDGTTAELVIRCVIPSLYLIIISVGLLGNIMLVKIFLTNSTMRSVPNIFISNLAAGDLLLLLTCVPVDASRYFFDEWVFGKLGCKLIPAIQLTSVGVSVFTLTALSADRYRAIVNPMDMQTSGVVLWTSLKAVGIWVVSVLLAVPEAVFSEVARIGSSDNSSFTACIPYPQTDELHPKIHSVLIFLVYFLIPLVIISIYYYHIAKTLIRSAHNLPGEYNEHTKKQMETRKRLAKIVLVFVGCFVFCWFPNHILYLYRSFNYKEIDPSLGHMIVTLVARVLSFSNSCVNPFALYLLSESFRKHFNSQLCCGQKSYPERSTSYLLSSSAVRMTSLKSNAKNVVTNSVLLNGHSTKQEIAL
Put plainly: Binding of 125I-[D-Tyr0]NMB to NMB-R transfected BALB 3T3 cells.

Another test has as its target T3, NMB Receptor (Rattus norvegicus, UniProt P24053).
T3 construct: a full length NMB-preferring bombesin receptor clone generated from rat esophagus; expressed in transfected cells; host or cells: BALB 3T3 cells
T3 sequence (P24053 1-390): T2 sequence (P24053 1-390)
The experiment in a line: [3H]inositol phosphates (IP) in NMB-R transfected cells. Format: cell-based. The method in brief:
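BALB 3T3 cells stably expressing rat NMB receptor, labelled 48 h with myo-[2-3H]inositol, then 60 min at 37°C in LiCl-containing buffer with agonists, or with 3 nM NMB plus antagonists. Total [3H]IP isolated by anion-exchange chromatography.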

The target in another test is T4, GRP Receptor (Rattus norvegicus, UniProt P52500).
T4 construct: from tissue; host or cells: dispersed pancreatic acini
T4 sequence (P52500 whole entry): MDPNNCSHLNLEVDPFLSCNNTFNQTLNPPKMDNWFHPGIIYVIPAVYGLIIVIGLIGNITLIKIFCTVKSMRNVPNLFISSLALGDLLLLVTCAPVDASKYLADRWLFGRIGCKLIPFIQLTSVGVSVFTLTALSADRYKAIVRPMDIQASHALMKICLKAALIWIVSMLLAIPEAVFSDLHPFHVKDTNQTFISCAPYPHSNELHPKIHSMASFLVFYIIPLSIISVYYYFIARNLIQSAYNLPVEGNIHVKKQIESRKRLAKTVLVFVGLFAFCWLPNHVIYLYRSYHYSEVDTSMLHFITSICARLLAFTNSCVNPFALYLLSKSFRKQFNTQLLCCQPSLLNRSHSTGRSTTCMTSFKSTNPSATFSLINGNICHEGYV
The experiment in a line: Amylase release from rat pancreatic acini. Format: cell-based.

The target of test [2] is T5, GRP receptors on rat pancreatic acini (Rattus norvegicus, UniProt P52500).
T5 construct: from tissue; host or cells: dispersed pancreatic acini
T5 sequence (P52500 whole entry): as above
Put plainly: Binding of 125I-[Tyr4]bombesin to pancreatic acini. The following applies: read-out: Ki (nM) ^123I[Tyr^4]BnBinding.
From the text: Nonsaturable binding was < 10% of total binding in all experiments.

Test [3] concerns the target T6, somatostatin receptors on AR 42J cells (Rattus norvegicus, UniProt P30680).
T6 construct: endogenous in cells; host or cells: rat AR 42J pancreatic acinar cells (membranes)
The experiment in a line: Somatostatin membrane receptor assay (AR 42J cell membranes). In kind it is binding. To be noted: AR 42J Cell Membranes; method of Cheng; unit inferred; read-out: affinity, ^125I-[Tyr^11]SS-14.

The target in test [4] is T7, GRP receptors on AR 42J cell membranes (Rattus norvegicus, UniProt P52500).
T7 construct: endogenous in cells; host or cells: rat AR 42J pancreatic acinar cells (membranes)
T7 sequence (P52500 whole entry): as above
Put plainly: GRP membrane receptor assay (AR 42J cell membranes). To be noted: method of Cheng, unit inferred, read-out: affinity, ^125I-[Tyr^4]Bn. Format: binding.

Test [5] concerns the target T8, NMB receptors on rat olfactory bulb membranes (Rattus norvegicus, UniProt P24053).
T8 construct: Membranes were prepared from rat olfactory bulb (NMB membrane receptor assay); from tissue; host or cells: rat olfactory bulb membranes
T8 sequence (P24053 1-390): T2 sequence (P24053 1-390)
The experiment in a line: NMB membrane receptor assay (rat olfactory bulb membranes). In kind it is binding. The following applies: Rat Olfactory bulb membranes; method of Cheng; unit inferred; read-out: affinity, ^125I-NMB.

The target in another test is T9, mu opioid receptors (Rattus norvegicus, UniProt P33535).
T9 construct: rat forebrain (TRH, mu and delta opioid membrane assays); from tissue; host or cells: rat forebrain membranes
T9 sequence (P33535 whole entry): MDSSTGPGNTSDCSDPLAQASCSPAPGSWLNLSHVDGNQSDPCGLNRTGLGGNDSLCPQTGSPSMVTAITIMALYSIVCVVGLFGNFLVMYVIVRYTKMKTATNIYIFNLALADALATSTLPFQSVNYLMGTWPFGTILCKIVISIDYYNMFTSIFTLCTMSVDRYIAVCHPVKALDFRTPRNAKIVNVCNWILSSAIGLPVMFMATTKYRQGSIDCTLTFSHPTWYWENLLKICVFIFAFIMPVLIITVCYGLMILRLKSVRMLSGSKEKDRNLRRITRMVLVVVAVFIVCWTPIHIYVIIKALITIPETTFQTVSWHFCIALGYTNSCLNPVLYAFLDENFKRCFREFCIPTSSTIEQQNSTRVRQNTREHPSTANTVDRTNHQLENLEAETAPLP
The experiment in a line: mu opioid membrane assay ([3H]DAGO, rat forebrain membranes). Format: binding. The following applies: Rat Forebrain membranes; method of Cheng; unit inferred; read-out: affinity, [^3H]DAGO.

Usually IC50 stands for the point on the concentration scale where inhibition reaches its midpoint.

Like-named read-outs stand apart in the source and are kept apart here.

T6 sequence (P30680 whole entry): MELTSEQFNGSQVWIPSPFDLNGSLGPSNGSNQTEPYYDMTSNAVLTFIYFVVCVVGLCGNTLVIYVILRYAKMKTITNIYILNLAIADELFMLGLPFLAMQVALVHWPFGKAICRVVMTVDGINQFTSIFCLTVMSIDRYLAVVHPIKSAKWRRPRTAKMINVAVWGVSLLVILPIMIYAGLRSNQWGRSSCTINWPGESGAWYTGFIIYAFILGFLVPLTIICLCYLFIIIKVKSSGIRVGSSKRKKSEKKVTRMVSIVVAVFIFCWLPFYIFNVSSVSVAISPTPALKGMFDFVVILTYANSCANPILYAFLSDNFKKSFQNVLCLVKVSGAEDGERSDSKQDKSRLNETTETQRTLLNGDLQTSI

On to `CC(C)[C@@H]1NC(=O)[C@H](CCCCN)NC(=O)[C@@H](Cc2c[nH]c3ccccc23)NC(=O)[C@H](Cc2ccc(O)cc2)NC(=O)[C@@H](NC(=O)[C@H](N)Cc2ccc3ccccc3c2)CSSC[C@@H](C(=O)N[C@H](C(N)=O)[C@@H](C)O)NC1=O` [Analog #5, [Thr^8]-cyclo-SS-octa], for which the Ki in test [1] is 3790 ± 1080 nM; at rat NMB receptor (K1, NMB-R transfected cells, summary of Table 1) it was 14000 to 19000 nM; on rat NMB receptor (NMB Receptor, Transfected Cells, Ki by method of Cheng, read-out: Ki (nM) ^123I-NMB Binding), 14800 ± 2650 nM; in test [2], over 10000 nM; in [3], 0.00029 ± 3e-05 µM; in test [4], 3.9 ± 1.2 µM. Also, the figures for the Ki (in test [5]; on mu opioid receptors) were 0.8 ± 0.2 µM and 0.002 ± 0.0014 µM, respectively. Besides, the IC50 at NMB Receptor (NMB Receptor, Transfected Cells, read-out: IC50 (nM) NMB-stimulated [^3H]IP) is over 10000 nM; at GRP Receptor, over 10000 nM. Besides, on NMB Receptor (NMB-R transfected cells, 3 nM NMB, peptide 10 µM), the “effect on NMB-stimulated increase in [^3H]IP” value is “no activity”.
